In ChEMBL document CHEMBL1201862, “PubChem BioAssay data set” (2004):
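Tested at 5 concentrations; 48 h exposure; 96-well plates; endpoints linearly interpolated, else capped at highest concentration. GI50 is the concentration that inhibits growth by half.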 The source made the active and inactive calls. No stated cut-off is given here; in the data, active = GI50 up to about 1.1 µM and inactive = higher.

Experiments:
Experiment in all cases: inhibition of tumour cell growth, NCI panel, 48 h
MDA-MB-435 = test system: MDA-MB-435
COLO 205 = test system: COLO 205
OVCAR-5 = test system: OVCAR-5
SK-MEL-28 = test system: SK-MEL-28
HL-60 = test system: HL-60
CCRF-CEM = test system: CCRF-CEM
MOLT-4 = test system: MOLT-4
NCI-H522 = test system: NCI-H522
ACHN = test system: ACHN
SW-620 = test system: SW-620
NCI-H460 = test system: NCI-H460
HT-29 = test system: HT-29
MCF7 = test system: MCF7
OVCAR-4 = test system: OVCAR-4
OVCAR-3 = test system: OVCAR-3
RXF 393 = test system: RXF 393
HCT-15 = test system: HCT-15
KM12 = test system: KM12
NCI/ADR-RES = test system: NCI/ADR-RES
RPMI-8226 = test system: RPMI-8226

| SMILES | GI50 (MDA-MB-435) | GI50 (COLO 205) | GI50 (OVCAR-5) | GI50 (SK-MEL-28) | GI50 (HL-60) | GI50 (CCRF-CEM) | GI50 (MOLT-4) | GI50 (NCI-H522) | GI50 (ACHN) | GI50 (SW-620) | GI50 (NCI-H460) | GI50 (HT-29) | GI50 (MCF7) | GI50 (OVCAR-4) | GI50 (OVCAR-3) | GI50 (RXF 393) | GI50 (HCT-15) | GI50 (KM12) | GI50 (NCI/ADR-RES) | GI50 (RPMI-8226) |
| --- | --- | --- | --- | --- | --- | --- | --- | --- | --- | --- | --- | --- | --- | --- | --- | --- | --- | --- | --- | --- |
| COC(=O)c1ccccc1/C=C1\Cc2ccc3c(c2C1=O)CCC3 | > 100 µM (inactive) | > 100 µM (inactive) | > 100 µM (inactive) | > 100 µM (inactive) | > 100 µM (inactive) | > 100 µM (inactive) | > 100 µM (inactive) | > 100 µM (inactive) | > 100 µM (inactive) | > 100 µM (inactive) | > 100 µM (inactive) | > 100 µM (inactive) | > 100 µM (inactive) | > 100 µM (inactive) | > 100 µM (inactive) | > 100 µM (inactive) | > 100 µM | > 100 µM (inactive) | > 100 µM (inactive) | > 100 µM (inactive) |
| CCCCc1c(O)nc(Nc2nc3ccccc3[nH]2)[nH]c1=O | > 100 µM (inactive) | > 100 µM (inactive) | > 100 µM (inactive) | > 100 µM (inactive) | > 100 µM (inactive) | > 100 µM (inactive) | > 100 µM (inactive) | 57 µM (inactive) | > 100 µM (inactive) | > 100 µM (inactive) | > 100 µM (inactive) | > 100 µM (inactive) | > 100 µM (inactive) | > 100 µM (inactive) | > 100 µM (inactive) | > 100 µM (inactive) | > 100 µM | > 100 µM (inactive) | > 100 µM (inactive) | > 100 µM (inactive) |
| Cc1cc(NC(=O)NC(=O)c2ccccc2NC(=O)CN(C)C)ccc1Oc1ncc(Br)cn1 | 0.289 µM (active) | 2.38 µM (inactive) | 15.1 µM (inactive) | 14.9 µM (inactive) | 0.658 µM (active) | 2.26 µM (inactive) | 4.95 µM (inactive) | 1.14 µM (inactive) | 18 µM (inactive) | 2.02 µM (inactive) | 0.78 µM (active) | 1.61 µM (inactive) | 0.809 µM (active) | 71.3 µM (inactive) | 1.04 µM (active) | 1.98 µM (inactive) | 3.18 µM | 1.36 µM (inactive) | 1.05 µM (active) | 10.4 µM (inactive) |
| NNC(=O)Nc1nc2ccc(NN)cc2[nH]1 | 21.5 µM (inactive) | 16.5 µM (inactive) | > 100 µM (inactive) | 19 µM (inactive) | 12.5 µM (inactive) | 14.6 µM (inactive) | 11.6 µM (inactive) | 29.6 µM (inactive) | 29 µM (inactive) | 23.8 µM (inactive) | 27.4 µM (inactive) | 34.5 µM (inactive) | 26.1 µM (inactive) | 34.3 µM (inactive) | 24.5 µM (inactive) | 25 µM (inactive) | 31.3 µM | 19.5 µM (inactive) | 47.8 µM (inactive) | 7 µM (inactive) |
| CCCCCCCCCCC(C(=O)O)C1(C(=O)O)CCC(=O)O1 (stereo not given) | > 100 µM (inactive) | > 100 µM (inactive) | > 100 µM (inactive) | > 100 µM (inactive) | 90.8 µM (inactive) | > 100 µM (inactive) | > 100 µM (inactive) | > 100 µM (inactive) | > 100 µM (inactive) | > 100 µM (inactive) | > 100 µM (inactive) | > 100 µM (inactive) | > 100 µM (inactive) | 43.2 µM (inactive) | > 100 µM (inactive) | > 100 µM (inactive) | > 100 µM | > 100 µM (inactive) | > 100 µM (inactive) | > 100 µM (inactive) |
| O=C(O)c1ccc(OCc2ccccc2)c(Cl)c1 | 80.5 µM (inactive) | > 100 µM (inactive) | > 100 µM (inactive) | > 100 µM (inactive) | > 100 µM (inactive) | > 100 µM (inactive) | > 100 µM (inactive) | > 100 µM (inactive) | > 100 µM (inactive) | > 100 µM (inactive) | > 100 µM (inactive) | > 100 µM (inactive) | > 100 µM (inactive) | 14 µM (inactive) | > 100 µM (inactive) | > 100 µM (inactive) | > 100 µM | 30.3 µM (inactive) | > 100 µM (inactive) | > 100 µM (inactive) |
| CO/N=C1\CC(C)N2C(=O)C(C(C)C)NC(=O)C(NC(=O)c3c4nc5c(C(=O)NC6C(=O)NC(C(C)C)C(=O)N7C(C)CC(O)C7C(=O)N(C)CC(=O)N(C)C(C(C)C)C(=O)OC6C)ccc(C)c5oc-4c(C)c(=O)c3N)C(CO)OC(=O)C(C)N(C)C(=O)CN(C)C(=O)C12 (stereo not given) | 0.824 µM (active) | 0.411 µM (active) | 6.92 µM (inactive) | 0.791 µM (active) | 0.555 µM (active) | 0.0703 µM (active) | 0.222 µM (active) | 0.249 µM (active) | 1.26 µM (inactive) | 0.346 µM (active) | 0.098 µM (active) | 0.526 µM (active) | 0.34 µM (active) | 5.82 µM (inactive) | 1.42 µM (inactive) | 0.865 µM (active) | 7.01 µM | 0.877 µM (active) | 16.6 µM (inactive) | 0.0984 µM (active) |
| Oc1ccc(Cn2c(-c3ccc(O)c(O)c3)nc3ccccc32)cc1O | 12.8 µM (inactive) | 17.4 µM (inactive) | 38.1 µM (inactive) | 22.1 µM (inactive) | 16.8 µM (inactive) | 3.37 µM (inactive) | 2.52 µM (inactive) | 4.67 µM (inactive) | 10.9 µM (inactive) | 13.4 µM (inactive) | 15.8 µM (inactive) | 30.3 µM (inactive) | 30.1 µM (inactive) | 4.9 µM (inactive) | 14.4 µM (inactive) | 29.4 µM (inactive) | 7.48 µM | 13.5 µM (inactive) | 32.9 µM (inactive) | 13.3 µM (inactive) |
